Values of other authors in patent US20010033859A1, “Transdermal therapeutic system for delivery of dofetilide” (priority 2000, published 2001).

Conditions: stated as a property of the drug substance; solvent system not given

- partition coefficient: about 1
Structure (SMILES): CN(CCOc1ccc(NS(C)(=O)=O)cc1)CCc1ccc(NS(C)(=O)=O)cc1 [dofetilide, N-[4-[2-[methyl[2-[4-[(methylsulfonyl)amino]phenoxy]ethyl]amino]ethyl]phenyl]-methanesulfonamide]
